# Target: T1, human capsaicin receptor (Homo sapiens, UniProt Q8NER1)
# T1 construct: expressed in transfected cells
# Experiment: Calcium mobilization assay, determination of antagonist activity (Example 6)
# Type: cell-based
# Details: Table I; IC50 determined as described in Example 6; read-out: IC50
# Protocol: A cDNA encoding full length human capsaicin receptor (SEQ ID NO:1, 2 or 3 of U.S. Pat. No. 6,482,611) is subcloned in the plasmid pBK-CMV (Stratagene, La Jolla, Calif.) for recombinant expression in mammalian cells.
# Human embryonic kidney (HEK293) cells are transfected with the pBK-CMV expression construct encoding the full length human capsaicin receptor using standard methods. The transfected cells are selected for two weeks in media containing G418 (400 μg/ml) to obtain a pool of stably transfected cells. Independent clones are isolated from this pool by limiting dilution to obtain clonal stable cell lines for use in subsequent experiments.
# This Example illustrates representative calcium mobilization assays for use in evaluating test compounds for agonist and antagonist activity.
# Cells transfected with expression plasmids (as described in Example 4) and thereby expressing human capsaicin receptor are seeded and grown to 70-90% confluency in FALCON black-walled, clear-bottomed 96-well plates (#3904, BECTON-DICKINSON, Franklin Lakes, N.J.). The culture medium is emptied from the 96 well plates and FLUO-3 AM calcium sensitive dye (Molecular Probes, Eugene, Oreg.) is added to each well (dye solution: 1 mg FLUO-3 AM, 440 μL DMSO and 440 μl 20% pluronic acid in DMSO, diluted 1:250 in Krebs-Ringer HEPES (KRH) buffer (25 mM HEPES, 5 mM KCl, 0.96 mM NaH2PO4, 1 mM MgSO4, 2 mM CaCl2, 5 mM glucose, 1 mM probenecid, pH 7.4), 50 μl diluted solution per well). Plates are covered with aluminum foil and incubated at 37° C. for 1-2 hours in an environment containing 5% CO2. After the incubation, the dye is emptied from the plates, and the cells are washed once with KRH buffer, and resuspended in KRH buffer.
# To measure the ability of a test compound to agonize or antagonize a calcium mobilization response in cells expressing capsaicin receptors to capsaicin or other vanilloid agonist, the EC50 of the agonist capsaicin is first determined. An additional 20 μl of KRH buffer and 1 μl DMSO is added to each well of cells, prepared as described above. 100 μl capsaicin in KRH buffer is automatically transferred by the FLIPR instrument to each well. Capsaicin-induced calcium mobilization is monitored using either FLUOROSKAN ASCENT (Labsystems; Franklin, Mass.) or FLIPR (fluorometric imaging plate reader system; Molecular Devices, Sunnyvale, Calif.) instruments. Data obtained between 30 and 60 seconds after agonist application are used to generate an 8-point concentration response curve, with final capsaicin concentrations of 1 nM to 3 μM. KALEIDAGRAPH software (Synergy Software, Reading, Pa.) is used to fit the data to the equation: y=a*(1/(1+(b/x)^c)) to determine the 50% excitatory concentration (EC50) for the response. In this equation, y is the maximum fluorescence signal, x is the concentration of the agonist or antagonist (in this case, capsaicin), a is the Emax, b corresponds to the EC50 value and c is the Hill coefficient. Determination of Agonist Activity
# Test compounds are dissolved in DMSO, diluted in 20 μl KRH buffer so that the final concentration of test compounds in the assay well is between 1 μM and 5 μM, and added to cells prepared as described above. The 96 well plates containing prepared cells and test compounds are incubated in the dark, at room temperature for 0.5 to 6 hours. It is important that the incubation not continue beyond 6 hours. Just prior to determining the fluorescence response, 100 μl capsaicin in KRH buffer at twice the EC50 concentration determined as described above is automatically added by the FLIPR instrument to each well of the 96 well plate for a final sample volume of 200 μl and a final capsaicin concentration equal to the EC50. The final concentration of test compounds in the assay wells is between 1 μM and 5 μM. […]
# T1 sequence (Q8NER1 whole entry): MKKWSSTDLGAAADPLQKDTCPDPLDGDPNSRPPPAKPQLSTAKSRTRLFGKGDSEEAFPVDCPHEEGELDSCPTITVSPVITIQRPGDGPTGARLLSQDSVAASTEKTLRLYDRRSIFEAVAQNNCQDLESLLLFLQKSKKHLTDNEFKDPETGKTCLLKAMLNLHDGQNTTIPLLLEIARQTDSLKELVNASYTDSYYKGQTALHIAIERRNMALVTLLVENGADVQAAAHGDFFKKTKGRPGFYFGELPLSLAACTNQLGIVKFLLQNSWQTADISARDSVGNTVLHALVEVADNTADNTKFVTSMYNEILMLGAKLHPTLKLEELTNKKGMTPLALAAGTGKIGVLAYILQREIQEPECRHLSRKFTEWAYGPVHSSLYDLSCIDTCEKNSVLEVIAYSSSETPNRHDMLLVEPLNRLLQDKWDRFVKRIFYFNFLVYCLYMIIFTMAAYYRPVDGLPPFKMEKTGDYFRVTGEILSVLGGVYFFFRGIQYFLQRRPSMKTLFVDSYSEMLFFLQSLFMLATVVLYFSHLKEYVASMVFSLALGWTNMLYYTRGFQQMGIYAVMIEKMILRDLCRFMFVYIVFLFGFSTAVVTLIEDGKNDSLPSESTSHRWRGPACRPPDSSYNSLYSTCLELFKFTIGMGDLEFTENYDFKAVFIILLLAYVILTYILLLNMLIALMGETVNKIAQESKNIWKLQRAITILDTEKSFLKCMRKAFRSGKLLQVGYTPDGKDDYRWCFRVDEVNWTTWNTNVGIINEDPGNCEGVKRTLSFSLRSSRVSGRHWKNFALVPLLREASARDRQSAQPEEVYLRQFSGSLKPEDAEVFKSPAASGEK
row,Structure (SMILES),IC50
1,"CCCCN(C)CCNc1cc(C(F)(F)F)c(-c2cnc3c(Nc4ccc(C(F)(F)F)cn4)ccnc3n2)nn1 [compound 70, N-butyl-N-methyl-N′-[5-(trifluoromethyl)-6-(8-{[5-(trifluoromethyl)pyridin-2-yl]amino}pyrido[2,3-b]pyrazin-3-yl)pyridazin-3-yl]ethane-1,2-diamine]",< 1000 nM
2,"CC(C)N1CCN(c2cc(C(F)(F)F)c(-c3cnc4c(Nc5ccc(C(F)(F)F)cn5)ccnc4n3)nn2)CC1 [compound 75, 3-[6-(4-isopropylpiperazin-1-yl)-4-(trifluoromethyl)-pyridazin-3-yl]-N-[5-(trifluoromethyl)pyridin-2-yl]pyrido[2,3-b]pyrazin-8-amine]",< 1000 nM
3,CCN(CC)C1CCN(c2cc(C(F)(F)F)c(-c3cnc4c(Nc5ccc(C(F)(F)F)cn5)ccnc4n3)nn2)CC1 [compound 80],< 1000 nM
4,"CCCN(CCC)C1CCN(c2cc(C(F)(F)F)c(-c3cnc4c(Nc5ccc(C(F)(F)F)cn5)ccnc4n3)nn2)CC1 [compound 81, 3-{6-[4-(dipropylamino)-piperidin-1-yl]-4-(trifluoro-methyl)pyridazin-3-yl}-N-[5-(trifluoromethyl)pyridin-2-yl]pyrido[2,3-b]pyrazin-8-amine]",< 1000 nM
5,"CCCN(CC1CC1)C1CCN(c2cc(C(F)(F)F)c(-c3cnc4c(Nc5ccc(C(F)(F)F)cn5)ccnc4n3)nn2)CC1 [compound 87, 3-[6-{4-[(cyclopropylmethyl)-(propyl)amino]piperidin-1-yl}-4-(trifluoromethyl)-pyridazin-3-yl]-N-[5-(trifluoromethyl)pyridin-2-yl]-pyrido[2,3-b]pyrazin-8-amine]",< 1000 nM
6,"CN(C)CCCN(C)c1cc(C(F)(F)F)c(-c2cnc3c(Nc4ccc(C(F)(F)F)cn4)ccnc3n2)nn1 [compound 88, N,N,N′-trimethyl-N′-[5-(trifluoromethyl)-6-(8-{[5-(trifluoromethyl)pyridin-2-yl]amino}pyrido[2,3-b]pyrazin-3-yl)pyridazin-3-yl]propane-1,3-diamine]",< 1000 nM
7,"CCN(C)CCN(CC)c1cc(C(F)(F)F)c(-c2cnc3c(Nc4ccc(C(F)(F)F)cn4)ccnc3n2)nn1 [compound 91, N,N′-diethyl-N-methyl-N′-[5-(trifluoromethyl)-6-(8-{[5-(trifluoromethyl)pyridin-2-yl]amino}pyrido[2,3-b]pyrazin-3-yl)pyridazin-3-yl]ethane-1,2-diamine]",< 1000 nM
8,"CC(C)CNc1cc(C(F)(F)F)c(-c2cnc3c(Nc4ccc(C(F)(F)F)cn4)ccnc3n2)nn1 [compound 99, 3-[6-(isobutylamino)-4-(trifluoromethyl)pyridazin-3-yl]-N-[5-(trifluoromethyl)-pyridin-2-yl]pyrido[2,3-b]pyrazin-8-amine]",< 1000 nM
9,"FC(F)(F)c1ccc(Nc2ccnc3nc(-c4nnc(NC5CC5)cc4C(F)(F)F)cnc23)nc1 [compound 104, 3-[6-(cyclopropylamino)-4-(trifluoromethyl)pyridazin-3-yl]-N-[5-(trifluoromethyl)-pyridin-2-yl]pyrido[2,3-b]pyrazin-8-amine]",< 1000 nM
10,"CCC(CC)Nc1cc(C(F)(F)F)c(-c2cnc3c(Nc4ccc(C(F)(F)F)cn4)ccnc3n2)nn1 [compound 115, 3-{6-[(1-ethylpropyl)amino]-4-(trifluoromethyl)pyridazin-3-yl}-N-[5-(trifluoromethyl)-pyridin-2-yl]pyrido[2,3-b]pyrazin-8-amine]",< 1000 nM
11,"C[C@@H](O)CNc1cc(C(F)(F)F)c(-c2cnc3c(Nc4ccc(C(F)(F)F)cn4)ccnc3n2)nn1 [compound 125, (R)-1-{[5-(trifluoromethyl)-6-(8-{[5-(trifluoromethyl)-pyridin-2-yl]amino}-pyrido[2,3-b]pyrazin-3-yl)pyridazin-3-yl]amino}propan-2-ol]",< 1000 nM
12,"C[C@H](O)CNc1cc(C(F)(F)F)c(-c2cnc3c(Nc4ccc(C(F)(F)F)cn4)ccnc3n2)nn1 [compound 126, (S)-1-{[5-(trifluoromethyl)-6-(8-{[5-(trifluoromethyl)-pyridin-2-yl]amino}-pyrido[2,3-b]pyrazin-3-yl)pyridazin-3-yl]amino}propan-2-ol]",< 1000 nM
13,"C=CCN(C)c1cc(C(F)(F)F)c(-c2cnc3c(Nc4ccc(C(F)(F)F)cn4)ccnc3n2)nn1 [compound 141, 3-{6-[allyl(methyl)amino]-4-(trifluoromethyl)pyridazin-3-yl}-N-[5-(trifluoromethyl)-pyridin-2-yl]pyrido[2,3-b]pyrazin-8-amine]",< 1000 nM
14,"CC(C)CN(C)c1cc(C(F)(F)F)c(-c2cnc3c(Nc4ccc(C(F)(F)F)cn4)ccnc3n2)nn1 [compound 145, 3-{6-[isobutyl(methyl)amino]-4-(trifluoromethyl)pyridazin-3-yl}-N-[5-(trifluoromethyl)-pyridin-2-yl]pyrido[2,3-b]pyrazin-8-amine]",< 1000 nM
15,"C=CCN(CC=C)c1cc(C(F)(F)F)c(-c2cnc3c(Nc4ccc(C(F)(F)F)cn4)ccnc3n2)nn1 [compound 150, 3-[6-(diallylamino)-4-(trifluoromethyl)pyridazin-3-yl]-N-[5-(trifluoromethyl)-pyridin-2-yl]pyrido[2,3-b]pyrazin-8-amine]",< 1000 nM
16,"CCCCN(CC)c1cc(C(F)(F)F)c(-c2cnc3c(Nc4ccc(C(F)(F)F)cn4)ccnc3n2)nn1 [compound 152, 3-{6-[butyl(ethyl)amino]-4-(trifluoromethyl)pyridazin-3-yl}-N-[5-(trifluoromethyl)-pyridin-2-yl]pyrido[2,3-b]pyrazin-8-amine]",< 1000 nM
17,"CCCN(CC1CC1)c1cc(C(F)(F)F)c(-c2cnc3c(Nc4ccc(C(F)(F)F)cn4)ccnc3n2)nn1 [compound 153, 3-{6-[(cyclopropylmethyl)-(propyl)amino]-4-(trifluoro-methyl)pyridazin-3-yl}-N-[5-(trifluoromethyl)pyridin-2-yl]pyrido[2,3-b]pyrazin-8-amine]",< 1000 nM
18,"CN(C)CC1CCCCN1c1cc(C(F)(F)F)c(-c2cnc3c(Nc4ccc(C(F)(F)F)cn4)ccnc3n2)nn1 (stereo not shown) [compound 164, 3-[6-{2-[(dimethylamino)-methyl]piperidin-1-yl}-4-(trifluoromethyl)pyridazin-3-yl)-N-[5-(trifluoromethyl)-pyridin-2-yl]pyrido[2,3-b]pyrazin-8-amine]",< 1000 nM
19,"O[C@@H]1CCN(c2cc(C(F)(F)F)c(-c3cnc4c(Nc5ccc(C(F)(F)F)cn5)ccnc4n3)nn2)C1 [compound 170, (R)-1-[5-(trifluoromethyl)-6-(8-{[5-(trifluoromethyl)-pyridin-2-yl]amino}-pyrido[2,3-b]pyrazin-3-yl)-pyridazin-3-yl]pyrrolidin-3-ol]",< 1000 nM
20,"CCN(CCCO)c1cc(C(F)(F)F)c(-c2cnc3c(Nc4ccc(C(F)(F)F)cn4)ccnc3n2)nn1 [compound 177, 3-{ethyl[5-(trifluoromethyl)-6-(8-{[5-(trifluoromethyl)-pyridin-2-yl]amino}-pyrido[2,3-b]pyrazin-3-yl)-pyridazin-3-yl]amino}propan-1-ol]",< 1000 nM
21,"CC(C)N(CCCO)c1cc(C(F)(F)F)c(-c2cnc3c(Nc4ccc(C(F)(F)F)cn4)ccnc3n2)nn1 [compound 178, 3-{isopropyl[5-(trifluoro-methyl)-6-(8-{[5-(trifluoro-methyl)pyridin-2-yl]amino}-pyrido[2,3-b]pyrazin-3-yl)pyridazin-3-yl]amino}propan-1-ol]",< 1000 nM
22,"OC1CN(c2cc(C(F)(F)F)c(-c3cnc4c(Nc5ccc(C(F)(F)F)cn5)ccnc4n3)nn2)C1 [compound 179, 1-[5-(trifluoromethyl)-6-(8-{[5-(trifluoromethyl)pyridin-2-yl]amino}pyrido[2,3-b]pyrazin-3-yl)pyridazin-3-yl]azetidin-3-ol]",< 1000 nM

# Source: patent publication US7935702B2, “Substituted biaryl quinolin-4-ylamine analogues” (Neurogen Corporation, priority 2004, dated 2011)
